Test results as given in US8513248B2, “5,6,7,8-tetrahydroimidazo[1,2-A]pyrazine derivatives as P2X7 modulators” (Glaxo Group Limited, priority 2009, dated 2013).
Where a name gives a salt, the structure may show the parent alone.

Each compound was assayed against T1, human recombinant P2X7 receptors (Homo sapiens, UniProt Q99572) (assay: Ethidium Accumulation Assay 1). Conditions: HEK293 cells stably expressing human recombinant P2X7; 1 mM ATP; ethidium 100 μM; read-out: Assay 1 (antagonist pIC50 for blocking ATP responses, ethidium accumulation) (converted).
T1 construct: expressed in transfected cells
T1 sequence (Q99572 1-595): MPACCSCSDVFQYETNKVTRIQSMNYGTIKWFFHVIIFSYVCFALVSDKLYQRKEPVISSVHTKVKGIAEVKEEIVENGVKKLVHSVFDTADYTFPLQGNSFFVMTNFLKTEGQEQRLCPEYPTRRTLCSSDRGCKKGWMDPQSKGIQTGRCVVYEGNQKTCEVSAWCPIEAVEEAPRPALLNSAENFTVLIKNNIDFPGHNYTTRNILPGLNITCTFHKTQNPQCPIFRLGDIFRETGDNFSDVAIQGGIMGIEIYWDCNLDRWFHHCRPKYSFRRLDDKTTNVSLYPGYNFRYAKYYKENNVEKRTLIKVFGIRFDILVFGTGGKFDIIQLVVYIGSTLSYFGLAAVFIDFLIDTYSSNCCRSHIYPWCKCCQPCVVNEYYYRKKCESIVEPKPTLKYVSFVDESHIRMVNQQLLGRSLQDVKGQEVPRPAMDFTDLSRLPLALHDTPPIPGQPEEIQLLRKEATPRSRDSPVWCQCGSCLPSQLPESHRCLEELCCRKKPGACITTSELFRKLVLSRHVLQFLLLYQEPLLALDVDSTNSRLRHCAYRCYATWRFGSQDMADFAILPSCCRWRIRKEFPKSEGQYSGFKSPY
Type: cell-based
Description: Studies were performed using NaCl assay buffer of the following composition: 140 mM NaCl, 10 mM HEPES [4-(2-hydroxyethyl)-1-piperazine-1-ethanesulfonic acid], 5 mM N-methyl-D-glucamine, 5.6 mM KCl, 10 mM D-glucose, 0.5 mM CaCl2 (pH 7.4).
Human Embryonic Kidney (HEK) 293 cells, stably expressing human recombinant P2X7 receptors, were grown in poly-D-lysine pretreated 96 well plates for 18-24 hours. […] The cells were washed twice with 350 μl of the assay buffer, before addition of 50 μl of the assay buffer containing the putative P2X7 receptor antagonist compound. (A small amount of dimethyl sulfoxide, for initially dissolving the compound, is optionally used and present in this […] test compound sample.) The cells were then incubated at room temperature (19-21° C.) for 30 min before addition of ATP and ethidium (100 μM final assay concentration). The ATP concentration was chosen to be close to the EC80 for the receptor type and was 1 mM for studies on the human P2X7 receptor. Incubations were continued for 8 or 16 min and were terminated by addition of 25 μl of 1.3M sucrose containing 4 mM of the P2X7 receptor antagonist Reactive Black 5 (Aldrich). […] Antagonist pIC50 values for blocking ATP responses were determined using iterative curve fitting techniques.

O=C(c1ccc(Cl)cc1Cl)N1CCn2cc(C(F)(F)F)nc2C1 [Example 3, 7-[(2,4-Dichlorophenyl)carbonyl]-2-(trifluoromethyl)-5,6,7,8-tetrahydroimidazo[1,2-a]pyrazine] and CCc1cn2c(n1)CN(C(=O)c1ccc(Cl)cc1Cl)CC2 [Example 7, 7-[(2,4-dichlorophenyl)carbonyl]-2-ethyl-5,6,7,8-tetrahydroimidazo[1,2-a]pyrazine] cannot be ordered by IC50: < 1000 nM for the first, < 1000 nM for the second.

O=C(c1cccc(C(F)(F)F)c1Cl)N1CCn2c(-c3ccccc3)cnc2C1 [Example 4, 7-{[2-chloro-3-(trifluoromethyl)phenyl]carbonyl}-3-phenyl-5,6,7,8-tetrahydroimidazo[1,2-a]pyrazine hydrochloride] and Cc1ccccc1-c1cnc2n1CCN(C(=O)c1cccc(C(F)(F)F)c1Cl)C2 [Example 28, 7-{[2-Chloro-3-(trifluoromethyl)phenyl]carbonyl}-3-(2-methylphenyl)-5,6,7,8-tetrahydroimidazo[1,2-a]pyrazine hydrochloride] cannot be ordered by IC50: < 10 nM for the first, < 100 nM for the second.

O=C(c1ccc(Cl)cc1Cl)N1CCn2c(-c3ccccc3)cnc2C1 [Example 5, 7-[(2,4-dichlorophenyl)carbonyl]-3-phenyl-5,6,7,8-tetrahydroimidazo[1,2-a]pyrazine hydrochloride] and O=C(c1ccc(F)cc1Cl)N1CCn2c(-c3ccccc3)cnc2C1 [Example 10, 7-[(2-chloro-4-fluorophenyl)carbonyl]-3-phenyl-5,6,7,8-tetrahydroimidazo[1,2-a]pyrazine hydrochloride] cannot be ordered by IC50: < 100 nM for the first, < 100 nM for the second.

CCc1cn2c(n1)CN(C(=O)c1cccc(C(F)(F)F)c1Cl)CC2 [Example 6, 7-{[2-chloro-3-(trifluoromethyl)phenyl]carbonyl}-2-ethyl-5,6,7,8-tetrahydroimidazo[1,2-a]pyrazine] and Cc1cn2c(n1)CN(C(=O)c1cccc(C(F)(F)F)c1Cl)CC2 [Example 11, 7-{[2-chloro-3-(trifluoromethyl)phenyl]carbonyl}-2-methyl-5,6,7,8-tetrahydroimidazo[1,2-a]pyrazine] cannot be ordered by IC50: < 100 nM for the first, < 501 nM for the second.

O=C(c1ccccc1Cl)N1CCn2c(-c3ccccc3)cnc2C1 [Example 8, 7-[(2-chlorophenyl)carbonyl]-3-phenyl-5,6,7,8-tetrahydroimidazo[1,2-a]pyrazine hydrochloride] and O=C(c1cccc(Cl)c1Cl)N1CCn2c(-c3ccccc3)cnc2C1 [Example 9, 7-[(2,3-Dichlorophenyl)carbonyl]-3-phenyl-5,6,7,8-tetrahydroimidazo[1,2-a]pyrazine hydrochloride] cannot be ordered by IC50: < 100 nM for the first, < 10 nM for the second.

Cc1cn2c(n1)CN(C(=O)c1cccc(Cl)c1Cl)CC2 [Example 12, 7-[(2,3-dichlorophenyl)carbonyl]-2-methyl-5,6,7,8-tetrahydroimidazo[1,2-a]pyrazine] and O=C(c1cccc(Cl)c1Cl)N1CCn2cc(-c3ccccc3)nc2C1 [Example 15, 7-[(2,3-dichlorophenyl)carbonyl]-2-phenyl-5,6,7,8-tetrahydroimidazo[1,2-a]pyrazine hydrochloride] cannot be ordered by IC50: < 501 nM for the first, < 1000 nM for the second.

CC(C)(C)c1cn2c(n1)CN(C(=O)c1cccc(C(F)(F)F)c1Cl)CC2 [Example 13, 7-{[2-chloro-3-(trifluoromethyl)phenyl]carbonyl}-2-(1,1-dimethylethyl)-5,6,7,8-tetrahydroimidazo[1,2-a]pyrazine hydrochloride] and O=C(c1cccc(C(F)(F)F)c1Cl)N1CCn2c(Br)cnc2C1 [Example 18, 3-Bromo-7-{[2-chloro-3-(trifluoromethyl)phenyl]carbonyl}-5,6,7,8-tetrahydroimidazo[1,2-a]pyrazine hydrochloride] cannot be ordered by IC50: < 1000 nM for the first, < 10 nM for the second.

O=C(c1cccc(C(F)(F)F)c1Cl)N1CCn2cc(-c3ccccc3)nc2C1 [Example 14, 7-{[2-chloro-3-(trifluoromethyl)phenyl]carbonyl}-2-phenyl-5,6,7,8-tetrahydroimidazo[1,2-a]pyrazine hydrochloride] and O=C(c1cccc(C(F)(F)F)c1Cl)N1CCn2c(nc(C(F)(F)F)c2-c2ccccc2)C1 [Example 26, 7-{[2-Chloro-3-(trifluoromethyl)phenyl]carbonyl}-3-phenyl-2-(trifluoromethyl)-5,6,7,8-tetrahydroimidazo[1,2-a]pyrazine] cannot be ordered by IC50: < 501 nM for the first, < 100 nM for the second.

O=C(c1cccc(C(F)(F)F)c1Cl)N1CCn2c(-c3ccccn3)cnc2C1 [Example 16, a hydrochloride (n•HCl) salt of 7-{[2-chloro-3-(trifluoromethyl)phenyl]carbonyl}-3-(2-pyridinyl)-5,6,7,8-tetrahydroimidazo[1,2-a]pyrazine] and O=C(c1cccc(C(F)(F)F)c1Cl)N1CCn2c(-c3ccc(F)cn3)cnc2C1 [Example 31, 7-{[2-Chloro-3-(trifluoromethyl)phenyl]carbonyl}-3-(5-fluoro-2-pyridinyl)-5,6,7,8-tetrahydroimidazo[1,2-a]pyrazine] cannot be ordered by IC50: < 10 nM for the first, < 10 nM for the second.

O=C(c1c(Cl)cc(Cl)cc1Cl)N1CCn2c(-c3ccccc3)cnc2C1 [Example 17, 3-Phenyl-7-[(2,4,6-trichlorophenyl)carbonyl]-5,6,7,8-tetrahydroimidazo[1,2-a]pyrazine hydrochloride] and O=C(c1cccc(C(F)(F)F)c1Cl)N1CCn2c(-c3ccc(Cl)cc3)cnc2C1 [Example 25, 3-(4-chlorophenyl)-7-{[2-chloro-3-(trifluoromethyl)phenyl]carbonyl}-5,6,7,8-tetrahydroimidazo[1,2-a]pyrazine hydrochloride] cannot be ordered by IC50: < 100 nM for the first, < 501 nM for the second.

O=C(c1cccc(C(F)(F)F)c1Cl)N1CCn2c(nc(C(F)(F)F)c2Br)C1 [Example 19, 3-Bromo-7-{[2-chloro-3-(trifluoromethyl)phenyl]carbonyl}-2-(trifluoromethyl)-5,6,7,8-tetrahydroimidazo[1,2-a]pyrazine] and O=C(c1cccc(C(F)(F)F)c1Cl)N1CCn2c(nc(Cl)c2Br)C1 [Example 33, 3-Bromo-2-chloro-7-{[2-chloro-3-(trifluoromethyl)phenyl]carbonyl}-5,6,7,8-tetrahydroimidazo[1,2-a]pyrazine] cannot be ordered by IC50: < 10 nM for the first, < 10 nM for the second.

O=C(c1cccc(C(F)(F)F)c1Cl)N1CCn2c(nc(I)c2I)C1 [Example 20, 7-{[2-chloro-3-(trifluoromethyl)phenyl]carbonyl}-2,3-diiodo-5,6,7,8-tetrahydroimidazo[1,2-a]pyrazine] and O=C(c1cccc(C(F)(F)F)c1Cl)N1CCn2c(I)cnc2C1 [Example 21, 7-{[2-chloro-3-(trifluoromethyl)phenyl]carbonyl}-3-iodo-5,6,7,8-tetrahydroimidazo[1,2-a]pyrazine] cannot be ordered by IC50: < 10 nM for the first, < 10 nM for the second.

O=C(c1cccc(C(F)(F)F)c1Cl)N1CCn2c(-c3ccc(F)cc3)cnc2C1 [Example 22, 7-{[2-Chloro-3-(trifluoromethyl)phenyl]carbonyl}-3-(4-fluorophenyl)-5,6,7,8-tetrahydroimidazo[1,2-a]pyrazine hydrochloride] and O=C(c1cccc(C(F)(F)F)c1Cl)N1CCn2c(-c3cccnc3)cnc2C1 [Example 23, a hydrochloride salt (n•HCl) of 7-{[2-chloro-3-(trifluoromethyl)phenyl]carbonyl}-3-(3-pyridinyl)-5,6,7,8-tetrahydroimidazo[1,2-a]pyrazine] cannot be ordered by IC50: < 100 nM for the first, < 10 nM for the second.

O=C(c1cccc(C(F)(F)F)c1Cl)N1CCn2c(-c3cccc(C(F)(F)F)c3Cl)cnc2C1 [Example 24, 3-[2-chloro-3-(trifluoromethyl)phenyl]-7-{[2-chloro-3-(trifluoromethyl)phenyl]carbonyl}-5,6,7,8-tetrahydroimidazo[1,2-a]pyrazine hydrochloride] and O=C(c1ccc(F)cc1Cl)N1CCn2c(nc(C(F)(F)F)c2Br)C1 [Example 32, 3-Bromo-7-[(2-chloro-4-fluorophenyl)carbonyl]-2-(trifluoromethyl)-5,6,7,8-tetrahydroimidazo[1,2-a]pyrazine] cannot be ordered by IC50: < 1000 nM for the first, < 100 nM for the second.

O=C(c1ccc(Cl)cc1Cl)N1CCn2c(nc(Cl)c2Cl)C1 [Example 29, 2,3-dichloro-7-[(2,4-dichlorophenyl)carbonyl]-5,6,7,8-tetrahydroimidazo[1,2-a]pyrazine] and O=C(c1ccc(F)cc1Cl)N1CCn2c(Br)cnc2C1 [Example 30, 3-Bromo-7-[(2-chloro-4-fluorophenyl)carbonyl]-5,6,7,8-tetrahydroimidazo[1,2-a]pyrazine] cannot be ordered by IC50: < 100 nM for the first, < 501 nM for the second.
